In patent US20250257061A1, “COMPOSITIONS AND METHODS FOR TREATING CANCER AND REDUCING WNT MEDIATED EFFECTS” (StemSynergy Therapeutics, Inc., priority 2024, published 2025):
Like-named read-outs stand apart in the source and are kept apart here. One block for each compound: values may come before it.

Key:
[1] = tested on: Wnt-dependent HCT116 cell line; test: Viability assay using Wnt-dependent HCT116 cell line (Cell Titer Glo); format: cell-based; conditions: HCT116 cells, read-out: Viability IC50 category
Protocol: All compounds were tested using the human cell line HEK STF293. This cell line carries a Wnt reporter (TCF/LEF1 promoter), which drives expression of the firefly luciferase protein. The level of Wnt activity is directly correlated with the level of luciferase activity (determined using a simple assay). Compounds that inhibit Wnt signaling by reducing luciferase activity in these two cell lines are further tested biochemically. […] Compounds were further tested in a Viability assay using Wnt-dependent HCT116 cell line. HEK293 cells were seeded in a 6-well plate at approximately 8.0×10^5 cells (2 mL per well). On the first day, Wnt3a-conditioned media (1:1) and compounds (1:100) were added to the plated cells. The final concentrations of compounds were 1 μM, 500 nM, and 100 nM. Vehicle (DMSO) and a Wnt3a-conditioned media plus Vehicle samples were also prepared as controls. Lysates were collected (with non-denaturing lysis buffer) after 24 hours incubation, and protein concentrations determined by Bradford Assay. Immunoblotting with an anti-beta-catenin antibody (equivalent amounts of protein/lane for each condition) were subsequently performed to determine beta-catenin levels. HCT116 cells were seeded at 2,500 cells/well in a 96-well dish (Volume: 100 μL/well). On the second day, the 10 mM stock solution of each test compound was thawed at room temperature. Dilutions of the test compound were prepared in DMSO in a V-bottom 96-well plate. The stock compound solution, DMSO-diluted compound solutions, and DMSO were further diluted 500-fold in cell culture media, and 100 μL of the compound- or DMSO-containing cell culture media was added to each well of the cells. […] The final DMSO concentration was 0.1% in all wells. On the fifth day, 150 μL of media was removed from each well. 50 μL/well Cell Titer Glo reagent (Promega) was added to each well. The plate was shaken at 130 rpm for 15 minutes at room temperature, and the cell viability was determined using a luminescence plate reader. All compounds were tested using the human cell line HEK STF293. This cell line carries a Wnt reporter (TCF/LEF1 promoter), which drives expression of the firefly luciferase protein. The level of Wnt activity is directly correlated with the level of luciferase activity (determined using a simple assay). Compounds that inhibit Wnt signaling by reducing luciferase activity in these two cell lines are further tested biochemically. […] Compounds were further tested in a Viability assay using Wnt-dependent HCT116 cell line. HEK293 cells were seeded in a 6-well plate at approximately 8.0×10^5 cells (2 mL per well). On the first day, Wnt3a-conditioned media (1:1) and compounds (1:100) were added to the plated cells. The final concentrations of compounds were 1 μM, 500 nM, and 100 nM. Vehicle (DMSO) and a Wnt3a-conditioned media plus Vehicle samples were also prepared as controls. Lysates were collected (with non-denaturing lysis buffer) after 24 hours incubation, and protein concentrations determined by Bradford Assay. Immunoblotting with an anti-beta-catenin antibody (equivalent amounts of protein/lane for each condition) were subsequently performed to determine beta-catenin levels. HCT116 cells were seeded at 2,500 cells/well in a 96-well dish (Volume: 100 μL/well). On the second day, the 10 mM stock solution of each test compound was thawed at room temperature. Dilutions of the test compound were prepared in DMSO in a V-bottom 96-well plate. The stock compound solution, DMSO-diluted compound solutions, and DMSO were further diluted 500-fold in cell culture media, and 100 μL of the compound- or DMSO-containing cell culture media was added to each well of the cells. […] The final DMSO concentration was 0.1% in all wells. On the fifth day, 150 μL of media was removed from each well. 50 μL/well Cell Titer Glo reagent (Promega) was added to each well. The plate was shaken at 130 rpm for 15 minutes at room temperature, and the cell viability was determined using a luminescence plate reader. […]

[2] = tested on: Wnt reporter (TCF/LEF1 promoter); test: HEK STF293 Wnt reporter (TOPFlash) luciferase assay, Steady Glo normalised to Cell Titer; format: cell-based, human; conditions: HEK STF293 cells, Wnt3a-conditioned media, read-out: TOPFlash IC50 category
Protocol: All compounds were tested using the human cell line HEK STF293. This cell line carries a Wnt reporter (TCF/LEF1 promoter), which drives expression of the firefly luciferase protein. The level of Wnt activity is directly correlated with the level of luciferase activity (determined using a simple assay). Compounds that inhibit Wnt signaling by reducing luciferase activity in these two cell lines are further tested biochemically. […] Compounds were further tested in a Viability assay using Wnt-dependent HCT116 cell line. Compounds were prepared as 10 mM stocks for each compound in DMSO. Dilutions were prepared in a 96-well plate in DMSO. The stock dilutions are as follows: 10 mM, 1 mM, 100 μM, 10 μM, 100 nM, and 10 nM. Plates were sealed and stored at −20° C. […] On the first day, Wnt3a-conditioned media (1:1) were added along with diluted compounds (1:100). […] The final concentrations should therefore be 100 μM, 10 μM, 1 μM, 100 nM, 10 nM, and 1 nM. On the second day, the media was removed and 75 μL of Passive Lysis Buffer (Promega) is added to each well. The plate was shaken at 130 rpm for 15 minutes. For the Steady Glo assay, 45 μL of the lysis was removed and added to a white 96-well plate containing 45 μL/well of Steady Glo solution (Promega). For the Cell Titer assay, 25 μL of the lysis was transferred to a white 96-well plate containing 25 μL/well of Cell Titer solution (Promega). Both Steady Glo and Cell Titer assays were read with a luminescence plate reader. When determining EC50, the Steady Glo values were divided by the Cell Titer values to normalize for cell number. All compounds were tested using the human cell line HEK STF293. This cell line carries a Wnt reporter (TCF/LEF1 promoter), which drives expression of the firefly luciferase protein. The level of Wnt activity is directly correlated with the level of luciferase activity (determined using a simple assay). Compounds that inhibit Wnt signaling by reducing luciferase activity in these two cell lines are further tested biochemically. […] Compounds were further tested in a Viability assay using Wnt-dependent HCT116 cell line. Compounds were prepared as 10 mM stocks for each compound in DMSO. Dilutions were prepared in a 96-well plate in DMSO. The stock dilutions are as follows: 10 mM, 1 mM, 100 μM, 10 μM, 100 nM, and 10 nM. Plates were sealed and stored at −20° C. […] On the first day, Wnt3a-conditioned media (1:1) were added along with diluted compounds (1:100). […] The final concentrations should therefore be 100 μM, 10 μM, 1 μM, 100 nM, 10 nM, and 1 nM. On the second day, the media was removed and 75 μL of Passive Lysis Buffer (Promega) is added to each well. The plate was shaken at 130 rpm for 15 minutes. For the Steady Glo assay, 45 μL of the lysis was removed and added to a white 96-well plate containing 45 μL/well of Steady Glo solution (Promega). For the Cell Titer assay, 25 μL of the lysis was transferred to a white 96-well plate containing 25 μL/well of Cell Titer solution (Promega). Both Steady Glo and Cell Titer assays were read with a luminescence plate reader. When determining EC50, the Steady Glo values were divided by the Cell Titer values to normalize for cell number. All compounds were tested using the human cell line HEK STF293. This cell line carries a Wnt reporter (TCF/LEF1 promoter), which drives expression of the firefly luciferase protein. The level of Wnt activity is directly correlated with the level of luciferase activity (determined using a simple assay). Compounds that inhibit Wnt signaling by reducing luciferase activity in these two cell lines are further tested biochemically. […] Compounds were further tested in a Viability assay using Wnt-dependent HCT116 cell line. Compounds were prepared as 10 mM stocks for each compound in DMSO. Dilutions were prepared in a 96-well plate in DMSO. The stock dilutions are as follows: 10 mM, 1 mM, 100 μM, 10 μM, 100 nM, and 10 nM. Plates were sealed and stored at −20° C. […]

[3] = Homo sapiens, HCT-116, Examples for Formulae (VIII), (IX), and (X)
[4] = Homo sapiens, STF/293, Examples for Formulae (VIII), (IX), and (X)
[5] = Homo sapiens, HCT-116, Examples for Formulae (IV), (V), (VI), and (VII)
[6] = Homo sapiens, STF/293, Examples for Formulae (IV), (V), (VI), and (VII)
[7] = Examples for Formulae (IV), (V), (VI), and (VII)
[8] = Homo sapiens, HCT-116, Examples for Formulae (I), (II), and (III)
[9] = Homo sapiens, STF/293, Examples for Formulae (I), (II), and (III)

Structure (SMILES): O=C(Nc1nc(-c2ccccn2)cs1)c1ccc(=O)n(Cc2ccc(F)cc2)c1 [Example 4]
IC50 [1, 3]: 500 to 1000 nM
IC50 [2, 4]: 500 to 1000 nM

Structure (SMILES): O=C(Nc1nc(-c2ccccn2)cs1)c1ccc(=O)n(Cc2ccc(C(F)(F)F)cc2)c1 [Example 7]
IC50 [1, 3]: 200 to 500 nM
IC50 [2, 4]: 200 to 500 nM

Structure (SMILES): Cc1onc(-c2ccc(Cl)cc2Cl)c1C(=O)Nc1nc(-c2ccccn2)cs1 [Example 17]
IC50 [1, 5]: 200 to 500 nM
IC50 [2, 6]: 200 to 500 nM

Structure (SMILES): CS(=O)(=O)c1ccccc1-c1ncoc1C(=O)Nc1nc(-c2ccccn2)cs1 [Example 44]
IC50 [1, 7]: 500 to 1000 nM
IC50 [2, 7]: 1000 to 10000 nM

Structure (SMILES): Cc1nn(Cc2ccc(F)cc2)c(Cl)c1C(=O)Nc1nc(-c2ccccn2)cs1 [Example 9]
IC50 [1, 8]: 500 to 1000 nM
IC50 [2, 9]: 500 to 1000 nM

Structure (SMILES): Cc1onc(-c2ccc(Cl)cc2F)c1C(=O)Nc1nc(-c2ccccn2)cs1 [Example 16]
IC50 [1, 5]: 200 to 500 nM
IC50 [2, 6]: 200 to 500 nM

Structure (SMILES): O=C(Nc1nc(-c2ccccn2)cs1)c1c(C(F)(F)F)nn(-c2ccccc2)c1C(F)(F)F [Example 17]
IC50 [1, 8]: 1000 to 10000 nM
IC50 [2, 9]: 1000 to 10000 nM

Structure (SMILES): Cc1noc(-c2ccccc2)c1C(=O)Nc1nc(-c2ccccn2)cs1 [Example 3]
IC50 [1, 5]: 200 to 500 nM
IC50 [2, 6]: 200 to 500 nM

Structure (SMILES): COc1cccc(-c2noc(C)c2C(=O)Nc2nc(-c3ccccn3)cs2)c1 [Example 18]
IC50 [1, 5]: 500 to 1000 nM
IC50 [2, 6]: 200 to 500 nM

Structure (SMILES): O=C(Nc1nc(-c2ccccn2)cs1)c1ccn(Cc2ccc(C(F)(F)F)cc2)c(=O)c1 [Example 10]
IC50 [1, 3]: 500 to 1000 nM
IC50 [2, 4]: 500 to 1000 nM

Structure (SMILES): Cc1nn(-c2ccc(F)cc2F)c(C)c1C(=O)Nc1nc(-c2ccccn2)cs1 [Example 8]
IC50 [1, 8]: 500 to 1000 nM
IC50 [2, 9]: 500 to 1000 nM

Structure (SMILES): CN(c1ncc(C(=O)O)o1)S(=O)(=O)c1ccc(Cl)cc1 [Example 37]
IC50 [1, 7]: 200 to 500 nM
IC50 [2, 7]: < 200 nM

Structure (SMILES): Cc1nc(-c2ccc(C#N)cc2)c(C(=O)Nc2nc(-c3ccccn3)cs2)o1 [Example 30]
IC50 [1, 7]: 200 to 500 nM
IC50 [2, 7]: < 200 nM

Structure (SMILES): O=C(Nc1nc(-c2ccccn2)cs1)c1cnnn1-c1cccc(F)c1 [Example 18]
IC50 [1, 8]: 200 to 500 nM
IC50 [2, 9]: 200 to 500 nM

Structure (SMILES): O=C(Nc1nc(-c2ccccn2)cs1)c1ccc(=O)n(-c2ccccc2F)c1 [Example 3]
IC50 [1, 3]: 500 to 1000 nM
IC50 [2, 4]: 200 to 500 nM

Now from value to compound, other results behind:

IC50 [1, 7]: < 200 nM
Structure (SMILES): Cc1onc(-c2ccc(C(F)(F)F)c(F)c2)c1C(=O)Nc1nc(-c2ccccn2)cs1 [Example 62]
IC50 [2, 7]: 200 to 500 nM

IC50 [1, 5]: 500 to 1000 nM
Structure (SMILES): CN(C)C(=O)c1ccc(-c2ncoc2C(=O)Nc2nc(-c3ccccn3)cs2)cc1 [Example 41]
IC50 [2, 6]: 500 to 1000 nM

IC50 [1, 5]: 500 to 1000 nM
Structure (SMILES): COc1ccc(S(=O)(=O)N(C)c2ncc(C(=O)Nc3nc(-c4ccccn4)cs3)o2)cc1 [Example 39]
IC50 [2, 6]: 500 to 1000 nM

IC50 [1, 5]: 1000 to 10000 nM
Structure (SMILES): CN(c1nc(C(F)(F)F)c(C(=O)Nc2nc(-c3ccccn3)cs2)o1)S(=O)(=O)c1ccc(F)cc1 [Example 54]
IC50 [2, 6]: 1000 to 10000 nM

IC50 [1, 7]: 1000 to 10000 nM
Structure (SMILES): CN(C(=O)c1ccc(Cl)cc1)c1ncc(C(=O)Nc2nc(-c3ccccn3)cs2)o1 [Example 34]
IC50 [2, 7]: 1000 to 10000 nM

IC50 [1, 5]: < 200 nM
Structure (SMILES): CCS(=O)(=O)N(C)c1nc(-c2ccc(F)cc2)c(C(=O)Nc2nc(-c3ccccn3)cs2)o1 [Example 57]
IC50 [2, 6]: < 200 nM

IC50 [1, 5]: 200 to 500 nM
Structure (SMILES): COCc1nc(-c2ccc(F)cc2)c(C(=O)Nc2nc(-c3ccccn3)cs2)o1 [Example 69]
IC50 [2, 6]: 200 to 500 nM

IC50 [1, 7]: < 200 nM
Structure (SMILES): Cc1nc(-c2ccc(-c3nnc(C(F)(F)F)o3)cc2)c(C(=O)Nc2nc(-c3ccccn3)cs2)o1 [Example 66]
IC50 [2, 7]: < 200 nM

IC50 [1, 5]: 500 to 1000 nM
Structure (SMILES): Cc1nc(N(C)S(=O)(=O)c2ccccc2Cl)oc1C(=O)Nc1nc(-c2ccccn2)cs1 [Example 49]
IC50 [2, 6]: 200 to 500 nM

IC50 [1, 7]: < 200 nM
Structure (SMILES): CN(c1nc(-c2ccc(F)cc2)c(C(=O)Nc2nc(-c3ccccn3)cs2)o1)S(=O)(=O)c1ccc(C(F)(F)F)cc1 [Example 61]
IC50 [2, 7]: < 200 nM

IC50 [1, 5]: 500 to 1000 nM
Structure (SMILES): O=C(Nc1nc(-c2ccccn2)cs1)c1ocnc1-c1ccc(C(=O)N2CCOCC2)cc1 [Example 42]
IC50 [2, 6]: 500 to 1000 nM

IC50 [1, 7]: 200 to 500 nM
Structure (SMILES): CS(=O)(=O)c1cccc(-c2ncoc2C(=O)Nc2nc(-c3ccccn3)cs2)c1 [Example 48]
IC50 [2, 7]: 500 to 1000 nM
